Test results reported in patent publication US5254572A, “Method and composition for supplementing vitamin B6 where the PN-PLP pathway is disturbed” (priority 1989, dated 1993).
Values joined by “and” are separate entries in the source; they are usually repeats but may differ in a detail not shown here. Identical values can stand only once. “Also recorded” adds a separate entry of the source.

Columns and labels:
[1] = Plasma PLP increment in critically ill patients on hyperalimentation and additional PN / alleviation of B6 depletion; type: in vivo
From the text: A direct inverse correlation exists between the degree of B6 depletion of critically ill patients and their chances of survival. Medical and surgical complication such as shock, hepatic failure, infection and sepsis, wound dehiscence, incisional hernia, aminoglycoside induced renal failure and impaired skin and mucosal regeneration, hematopoiesis, hormone production and wound repair; multi-organ dysfunction, respiratory distress and also severe depression are substantially more frequent in B6 deficient patients. These conditions are, inter alia, causally related to impairment of immune function, collagen and elastin cross-linking and polyamine synthesis and accumulation. […] However, the correctness or otherwise of any explanations given or mechanisms postulated is not to limit the scope of the invention or to be relevant to the inventive merits of the invention as claimed.

[2] = test system: estrogen side effects (tryptophane metabolism); experiment: Counteracting side effects of elevated estrogen (PMS, OC users); type: in vivo, patients
PN-oxidase deficiency = experiment: Response of patients with reduced PN-oxidase activity; type: in vivo
[3] = test system: anemia / haemoglobin formation; experiment: Treatment of anemias; type: in vivo, patients; conditions: cases where conventional therapy is ineffective, pyridoxine refractory anaemias
Babesia canis [4] = experiment: Example 4: clinical trials on dogs with B. canis infection; type: in vivo
Method: Babesia canis infection, better known as "biliary fever", is a severe and frequently fatal disease in dogs. It is a protozoal disease involving large-scale destruction of erythrocytes (red blood cells) and loss of haemoglobin. Double blind trials were carried out on two groups of dogs presented to the clinic for treatment of severe B. canis infections. Upon admission, all animals were recumbent with fever, jaundice, and accelerated heart and respiratory rate. All animals were given standard treatment, which consisted of post surgical drip, doxycycline, trypan blue, hepavet, electrolytes and glucose. In the experimental group, a solution of PL was added to the drip (electrolytes, glucose) given to the animals. In the control group, saline was given to replace the PL solution.
The PL solution according to the invention was made up as follows (per vial):
Experimental animals: PL solution according to the invention was given with the drip in such a manner that each patient received 50mg of pyridoxal over a 12 h period. Each animal received only one such course of treatment.
These received saline instead of PL solution under similar conditions. Control animals were selected to resemble experimental animals as closely as possible in respect of race and initial haemoglobin concentration.
**E: denotes experimental animals C: denotes controls, E: denotes changes
per day during the period between the first two series of measurements of
the parameters listed. Normally these represent measurements obtained
immediately after admission (or 1 day later) and again 2 to 4 days later
after treatment has been started.
***Average changes for six animals in each group over the two periods of […]

Babesia canis [5] = experiment: Example 4: further clinical trials on dogs with B-canis infection; type: in vivo
From the text: The experiment was repeated with 13 dogs (10 inbred beagles and 3 other mongrels) randomly divided into an experimental and a control group. All animals were infected with Babesia canis by injection of blood from a splenectomised donor dog which led to the development of acute Babesiosis in approximately 3-5 days. All dogs were monitored twice daily until the haematocrit values fell to 0.15 l/l when treatment was started which in the case of all animals consisted of the following:
Electrolytes solution (number 2) for the first […], thereafter Post-Surgisol. Both fluids were administered by means of an intravenous jugular catheter at a rate of 80 ml/kg/24h.
Trypan blue (1%) 1 ml/kg intravenous once only. Berenil 3.5 mg/kg intramuscularly 7 days after the Trypan blue. Heparin, 25 IU/kg subcutaneously three times per day for the first 2 days.
Experimental animals, in addition, received pyridoxal in their infusions at a concentration of 50 mg/l for the entire duration of fluid therapy.
Before the start of treatment, a urine dipstick and sediment examination were performed as well as a complete clinical evaluation and faecal flotation to determine the presence of helminth ova.
Assessment: Temperature pulse and respiration were measured every 6 hours during the first 3 days and a subjective assessment of habitus (grade 1-4) and appetite (1-4) was also made at the same time.
Full haematological and biochemical assessment was performed daily.
Serum alkaline phosphatase determinations were made on days 1 and 3.
Additional trial parameters and measurements consisted of Astrup determinations (before treatment and again 24 hours later) and a ten day survival rate.
Samples for haematology were drawn in evacuated EDTA tubes and for serum chemistries into plain evacuated tubes (cephalic vein).
Plasma PLP and PL as well as RBC-PLP and PL values were determined by means of a HPLC procedure routinely used for human studies.

[6] = test system: E. Coli induced septic shock; experiment: Protective effect in experimentally induced septic shock; type: in vivo, rats
Method: An E. Coli suspension was prepared and serially diluted to the point where an injection of 0.3 ml caused approximately 80% mortality in rats after 12 h. This solution was used as the challenging solution in the following experiment:
Two groups of 6 male rats each were used. The animals were carefully selected so that the average mass in both groups was 210 g (191-219 g in the control group; 194-224 g in the experimental group). A solution containing 43.8 mg/ml of pyridoxal was prepared for i/v and i/p injection. 0.8 ml of this solution afforded 1.0 m mol/kg of PL when injected into a 210 g rat.
At time 0 h, the control group received 0.3 ml saline and the experimental group 0.3 ml of the PL solution. After 1 h all animals in both groups were challenged with 0.3 ml i/v of the E. Coli suspension. Immediately thereafter, the control group received 0.5 ml saline and the experimental group 0.5 ml of the PL solution i/p.
Each entry represents 1 animal, 12 h denoting that the particular animal survived for the full observation period of 12 h. Other entries denote mortalities at the times indicated, e.g. 2 h inspection (all animals were inspected at 1 h intervals and mortalities counted).

fibroblast cell cultures = experiment: Example 27: cellular uptake in fibroblast cell cultures, intracellular PLP content; type: cell-based
Method: Fibroblast cell cultures were cultivated in the usual manner in a medium containing different concentrations of various B6 vitamers, and the intracellular […] content was determined.
When the extracellular PL concentration was 60 nM, intracellular PLP levels reached a concentration of 12 nmol/g cell protein. […] Moreover, when both PN and PL were included in the medium, intracellular PLP accumulation was decreased in comparison with PLP accumulation seen when PL alone (in equimolecular concentrations)was included in the medium.

[7] = experimental animals or humans; cited from earlier work
lipid metabolism = conditions: experimental animals; German patent application P37 05 549.6; cited from earlier work
[8] = compared with PN; cited from earlier work
albumin = conditions: plasma; cited from earlier work
[9] = test system: PNP-oxidase in bone marrow aspirate; experiment: Conversion of pyridoxine by bone marrow aspirate (PNP-oxidase activity); type: cell-based; conditions: immature cells
Method: To confirm the inability of immature cells to convert pyridoxine into pyridoxal and its phosphate, an aspirate of bone marrow was tested.

[10] = test system: glutamate-pyruvate-transaminase (GPT); experiment: RBC GPT-activity before and after daily oral PN supplementation; type: in vivo, human; conditions: RBC GPT-activity at day 0 and day 28, daily oral PN (10 mg)
From the text: The enzyme glutamate-pyruvate-transaminase (GPT) is a PLP dependent enzyme present in RBC which can be used to assess the utilisation of PN by RBC. In the population, individuals may be divided into 3 different groups corresponding to 3 polymorphic forms of the enzyme (1-1, 25%; 1-2, 50%; 2-2, 25%.

[11] = man; cited from earlier work
[12] = test system: estrogen side effects (tryptophane metabolism); conditions: cited from earlier work
[13] = test system: anemia / haemoglobin formation; conditions: 50-200 mg PN/day, one case 600 mg/day; Merrill and Henderson; cited from earlier work
[14] = test system: PLP-phosphatases in red blood cells; experiment: Inhibition of PLP-specific phosphatases of red blood cells; type: biochemical
[15] = average change for six experimental animals
[16] = change per day, individual animal, 50 mg pyridoxal over 12 h with drip
[17] = change per day, total of experimental group
[18] = patients destined to die, hyperalimentation and additional PN, even with 200mg/day

SMILES: Cc1ncc(CO)c(C=O)c1O [PL, pyridoxal]
- effectiveness to counteract B6 depletion ([1]; compared with PN, also patients who do not respond to PN): substantially more effective than PN
- effectiveness / effective dosage rate against side effects of estrogen ([2]; supplementation, particularly over prolonged periods, compared with pyridoxine): effective at dosage rates as low as a few mg/day; also recorded: far more effective
- response compared with PN (PN-oxidase deficiency): respond much more satisfactorily
- stimulation of haemoglobin formation [3]: capable of stimulating the formation of haemoglobulin
- Hb change, average (Babesia canis [4]; [15]): 11.7 g/L
- MCHC change, average (Babesia canis [4]; [15]): -0.03 g/dlRC
- MCV change, average (Babesia canis [4]; [15]): 0.17 fL
- RCC change, average (Babesia canis [4]; [15]): 4.4e+11 L⁻¹
- WCC change, average (Babesia canis [4]; [15]): 4.52e+09 L⁻¹
- Hb (haemoglobin) change (Babesia canis [4]; [16]): 11.0 g/L and 12.8 g/L and 6.5 g/L and 9.5 g/L and 7.8 g/L and 24.8 g/L
- MCHC (mean corpuscular haemoglobin content) change (Babesia canis [4]; [16]): 3.8 g/dlRC and -1 g/dlRC and -2.5 g/dlRC and -1.7 g/dlRC and -0.5 g/dlRC and 2.5 g/dlRC
- MCV (mean corpuscular volume) change (Babesia canis [4]; [16]): -6 fL and 2 fL and 0 fL and 3 fL and 1 fL
- RCC (red cell count) change (Babesia canis [4]; [16]): 4.1e+11 L⁻¹ and 4.9e+11 L⁻¹ and 4.7e+11 L⁻¹ and 2.3e+11 L⁻¹ and 6.4e+11 L⁻¹
- WCC (white cell count) change (Babesia canis [4]; [16]): 3e+09 L⁻¹ and -8.4e+09 L⁻¹ and 2.5e+09 L⁻¹ and 3.1e+09 L⁻¹ and 1.05e+09 L⁻¹ and 1.79e+10 L⁻¹
- Hb change, total (Babesia canis [4]; [17]): 70 g/L
- MCHC change, total (Babesia canis [4]; [17]): -8.2 g/dlRC
- MCV change, total (Babesia canis [4]; [17]): 1 fL
- RCC change, total (Babesia canis [4]; [17]): 2.65e+12 L⁻¹
- WCC change, total (Babesia canis [4]; [17]): 2.715e+10 L⁻¹
- recovery of haemoglobin levels (Babesia canis [4]; experimental animals): amazing recovery of haemoglobin levels
- haematological differences to control group (haemoglobin, RCC, WCC) (Babesia canis [4]; experimental vs control): Large, significant differences
- mean corpuscular hemoglobin (Babesia canis [5]; day 5, experimental animals): statistically significantly increased
- mean corpuscular volume (Babesia canis [5]; day 5, experimental animals): statistically significantly increased
- clinical improvement (Babesia canis [5]; experimental group): definite clinical improvement
- deaths (Babesia canis [5]; experimental group, 50 mg/l in infusions, two died in control group): none
- reticulocyte count response (Babesia canis [5]; experimental vs control): responded quicker
- normablast count profile (Babesia canis [5]; first 3 days, continuous downward trend in controls): inverse trend
- alkaline phosphatase values (Babesia canis [5]; serum, day 1 to day 3, decreased in controls): large increase
- difference in survival rate ([6]; PL-supplemented vs control, 12 h): statistically significant difference in survival rate
- survival time ([6]; individual rat, 0.3 ml i/v 1 h before and 0.5 ml i/p after challenge, 12h = survived full period): 1 h and 3 h (3×) and 12 h (2×)
- intracellular PLP level (fibroblast cell cultures; extracellular PL concentration 60 nM): 12 nmol/g cell protein
- intracellular PLP level, maximum value (fibroblast cell cultures; extracellular PL concentration 600 nM): 120 nmol/g cell protein
- cellular uptake (fibroblast cell cultures; further increase of extracellular concentration): saturable process
- effect of extracellular vitamer on intracellular PLP level (fibroblast cell cultures; relative effectiveness of PL and PN): more effective than PN
- adverse effects [7]: No adverse effects
- lipid lowering effect (lipid metabolism): unexpectedly strong lipid lowering effects
- in vitro stability [8]: far less stable

SMILES: Cc1ncc(COP(=O)(O)O)c(C=O)c1O [PLP, pyridoxal phosphate]
- accumulation of extracellular PLP by the cells (fibroblast cell cultures): not accumulated by the cells
- radioactivity in the intracellular fraction (fibroblast cell cultures; incubation with radioactive PLP): very little radioactivity
- protein (albumin) binding compared with PL (albumin): substantially more prone to becoming protein (albumin) bound than PL

SMILES: Cc1ncc(CO)c(CN)c1O [PM, pyridoxamine]
- response compared with PN (PN-oxidase deficiency): respond much more satisfactorily

SMILES: Cc1ncc(CO)c(CO)c1O [PN, pyridoxine]
- increment in plasma PLP, generally [1, 18]: less than 10 nM
- increment in plasma PLP, occasionally [1, 18]: less than 1 nM
- side effects at high bolus dosage ([2]; high dosage levels (e.g. 200-400 mg daily)): produces side effects
- conversion of pyridoxine into pyridoxal and its phosphate [9]: incapable of converting PN into PLP or PL
- conversion of pyridoxine into pyridoxal and its phosphate ([9]; listed as pyridoxine): incapable of converting pyridoxine into pyridoxal
- slow responders among persons studied [10]: Approximately 20%
- rate of increase of intracellular PLP level (fibroblast cell cultures; PN vs PL as extracellular source): increased much more slowly (and in a time dependent manner)
- effect of high concentrations on intracellular PLP accumulation (fibroblast cell cultures; high concentrations of PN with PL): suppress intracellular PLP accumulation
- plasma half-life [11]: about 12 minutes
- dosage necessary for effect in PMS / estrogen side effects ([12]; bolus doses, daily): 200 to 400 mg/day
- effect on Tryp. metabolism and associated clinical symptoms ([12]; oral, OC users): repeatedly shown to normalise Tryp. metabolism
- lipid lowering effect (lipid metabolism): only a weak lipid-lowering and regulating agent
- response rate in pyridoxine-responsive anemias [13]: fewer than half of the cases

SMILES: NCCCCNCCCN [spermidine]
- inhibition of PLP-specific phosphatases [14]: inhibited

SMILES: NCCCNCCCCNCCCN [spermine]
- inhibition of PLP-specific phosphatases [14]: inhibited
